The subject of test [1] is human trabecular meshwork cell line (TM-1 cells). In words: Effect of morphological change on trabecular meshwork cells (cell shape index, CSI). The format is cell-based. Particulars: final concentration 10 μM, 24 hours, control CSI 0.679, lower CSI indicates greater morphological change. The method, then: As a method for evaluating a cellular morphological change, an evaluation system using the cell shape index (hereinafter referred to as “CSI”) as an index has been reported in The Journal of Clinical Investigation, 103, 1141-1150 (1999). Therefore, according to the method described in the above document, an effect of morphological change of the present compounds on trabecular meshwork cells was evaluated.
A human trabecular meshwork cell line (hereinafter referred to as “TM-1 cells”) reported in Investigative Opthalmology & Visual Science, 43, 151-161 (2002) was used.
Culture medium 1: A reagent was prepared by adding fetal bovine serum (10%), L-glutamine (2 mM), amphotericin B (2.5 μg/mL), and gentamicin (25 μg/mL) to Dulbecco's Modified Eagle Medium (hereinafter referred to as “D-MEM”).
Culture medium 2: Fetal bovine serum (3%), L-glutamine (2 mM), amphotericin B (2.5 μg/mL), and gentamicin (25 μg/mL) were added to D-MEM. […]
10) Using Array Scan Vti HCS reader (manufactured by Cellomics), images of stained cells magnified with a 20-fold objective lens were captured in 80 fields (10 fields×8 wells) per test compound addition group.
11) CSI was calculated for each cell and an average value was obtained for each test compound addition group.
CSI was calculated using the following equation. […]

The test system of test [2] is HDAC (HeLa nuclear extract). Nature of the test: Test for evaluation of HDAC inhibitory activity (HDAC Fluorimetric Assay/Drug Discovery Kit, Biomol). The format is biochemical. The settings on record: final concentration of test compound 30 μM, rates of more than 100% are shown as 100%. The method, then: Using HDAC Fluorimetric Assay/Drug Discovery Kit (manufactured by Biomol), HDAC inhibitory activity of the present compounds was measured according to the protocol included with the kit. The kit contains Buffer, HeLa nuclear extract (includes HDAC), Substrate, Developer and Trichostatin A (an HDAC inhibitor).
A test compound was dissolved in dimethyl sulfoxide, whereby a 2 mg/mL solution was prepared. Then, the resulting solution was diluted with Buffer containing 5% dimethyl sulfoxide, whereby a 150 μM test compound solution was prepared.
1) To a 384-well culture plate, the test compound solution was added in an amount of 2 μL per well.
2) HeLa nuclear extract was diluted 30-fold with Buffer. The resulting solution was added in an amount of 3 μL per well and then, incubation was performed at 37° C. for 2 hours.
3) Substrate was diluted 500-fold with Buffer. […]
5) The fluorescence intensity of each well was measured using multilabel counter ARVO (manufactured by Wallac) with excitation at 360 nm and emission at 460 nm. […]
Enzyme inhibitory rate (%) was calculated using the following equation. (Enzyme Inhibitory Rate(%))=100×[1−{(Fluorescence Intensity of Test Compound Solution)−(Florescence Intensity of Blank)}/{(Florescence Intensity of Control)−(Florescence Intensity of Blank)}] […]

Each structure is given as a SMILES string.

The molecule `Nc1ccccc1NC(=O)c1ccc(CN(CCCN2CCCCC2)C(=O)NCCc2ccccc2)cn1` [Compound 1-3] displayed a CSI in test [1] of 0.569. Also, the “Enzyme Inhibitory Rate (%)” value in test [2] was 100%.

The record behind these values is patent US8012972B2, “Pyridinecarboxylic acid (2-aminophenyl) amide derivative having urea structure” (Santen Pharmaceutical Co., Ltd., priority 2007, dated 2011).
